Read-outs that look alike come from different tables or passages of the source. Bounds are passed on as bounds.

The subject of assay [1] is THP-1 cells. The experiment in a line: TNFα generation assay. Format: cell-based, human. In short, it runs like this:
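THP-1 cells differentiated to macrophage-like cells with 10 ng/ml IFN-γ for 2 days, preincubated with compound 30 min at room temperature, then cultured 7 h on plates coated with human IgG (10 μg/ml). Secreted TNFα measured by ELISA or AlphaLISA.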

The target of assay [2] is T1, glutathione S-transferase (GST)-fused full-length human Syk protein (Homo sapiens, UniProt P43405).
T1 construct: (GST)-fused full-length human Syk protein; GST (glutathione S-transferase); purchased Carna Biosciences
The experiment in a line: Syk enzyme assay. Format: biochemical. In short, it runs like this:
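Baculovirus-expressed enzyme (1.2 ng) was preincubated with compound in HEPES pH 7.0/MgCl2/DTT buffer, 2 min shaking then 13 min at room temperature. Biotin-EDPDYEWPSA-NH2 (0.4 μM final) and ATP (27 μM final) were added for 40 min at room temperature. EDTA stop, streptavidin-XL/PT66-K TR-FRET at 615/665 nm gave IC50.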

Where [3] appears, read: Homo sapiens, THP-1, THP-1 cells, Table 22, read-out: IC50 in TNFα generation assay.
Where [4] appears, read: Syk enzyme assay, Test Example 1, read-out: IC50 of Syk-inhibitory activity.
[5] abbreviates: Homo sapiens, THP-1, 7 h, IFN-γ-differentiated THP-1 cells on human IgG-coated plate, cultured 7 hours, read-out: TNFα generation inhibitory activity (IC50).
The mark [6] stands for this setting: read-out: Syk-inhibitory activity (IC50).

Turning to `CCCC[C@H](CN)Nc1nc(Nc2cncc(-c3ccccc3)c2)c(C(N)=O)cc1F` [Example 006-295, (R)-6-((1-aminohexan-2-yl)amino)-5-fluoro-2-((5-phenylpyridin-3-yl)amino)nicotinamide], the IC50 fell in the range of 0.13 to 0.2 µM in assay [1] (setting [3]) and 0.01 to 0.05 µM in assay [2] (setting [4]).
On the same counts, the results for `NC(=O)c1cc(F)c(NC2CCCCC2N)nc1Nc1cncc(NC(=O)c2cccc(F)c2F)c1` (stereo not shown) [Example 027-030] are 0.13 to 0.2 µM and 0.01 to 0.05 µM.
For `NC(=O)c1cc(F)c(N[C@@H]2CCCC[C@@H]2N)nc1Nc1cncc(C2CC2)c1` (relative stereo) [Example 004-055], the IC50 in assay [1] (setting [3]) is 0.065 to 0.13 µM; in assay [2] (setting [4]) it was less than 0.01 µM.
For `CCOc1ncc(Nc2nc(N[C@@H]3CCCC[C@@H]3N)c(F)cc2C(N)=O)cc1F` [Example 006-572, 6-(((1R,2S)-2-aminocyclohexyl)amino)-2-((6-ethoxy-5-fluoropyridin-3-yl)amino)-5-fluoronicotinamide] the same measures were 0.13 to 0.2 µM and 0.01 to 0.05 µM.
`CC[C@@H](Nc1nc(Nc2ccnc(-c3ccco3)c2)c(C(N)=O)cc1F)[C@H](C)N` [Example 006-256, 6-(((2S,3R)-2-aminopentan-3-yl)amino)-5-fluoro-2-((2-(furan-2-yl)pyridin-4-yl)amino)nicotinamide]: the IC50 in assay [1] (setting [3]) is 0.065 to 0.13 µM; in assay [2] (setting [4]), less than 0.01 µM.
Regarding `Cc1nn(C)c2ccc(Nc3nc(NC4CCCCC4N)c(F)cc3C(N)=O)cc12` (stereo not shown) [Example 002-206], the IC50 in assay [1] (setting [3]) was less than 0.065 µM; in assay [2] (setting [4]), less than 0.01 µM.
Take `NC(=O)c1cc(F)c(N[C@@H]2CCCC[C@@H]2N)nc1Nc1cnc2cc(N3CCOCC3)ccc2c1` (relative stereo) [Example 004-123, 6-(cis-2-aminocyclohexylamino)-5-fluoro-2-((7-morpholinoquinolin-3-yl)amino)-nicotinamide]: the IC50 was 0.13 to 0.2 µM in assay [1] (setting [3]) and less than 0.01 µM in assay [2] (setting [4]).
Consider `NC(=O)c1cc(F)c(N[C@@H]2CCCC[C@@H]2N)nc1Nc1ccnc(-n2cccc2)c1` (relative stereo) [Example 006-124, 2-((2-(1H-pyrrol-1-yl)pyridin-4-yl)amino)-6-((cis-2-aminocyclohexyl)amino)-5-fluoronicotinamide], for which the IC50 in assay [1] (setting [3]) was 0.13 to 0.2 µM; in assay [2] (setting [4]), less than 0.01 µM.
As to `Cc1cc(Nc2nc(N[C@H](C3CCC3)[C@H](C)N)c(F)cc2C(N)=O)cnc1C` [Example 006-597, 6-(((1R,2S)-2-amino-1-cyclobutylpropyl)amino)-2-((5,6-dimethylpyridin-3-yl)amino)-5-fluoronicotinamide], the results for the IC50 in assay [1] (setting [3]) and in assay [2] (setting [4]) were 0.065 to 0.13 µM and less than 0.01 µM, respectively.
For `CCn1nc(C)c2ccc(Nc3nc(N[C@H](CC4CC4)[C@H](C)N)c(F)cc3C(N)=O)cc21` [Example 006-486, 6-(((2R,3S)-3-amino-1-cyclopropylbutan-2-yl)amino)-2-((1-ethyl-3-methyl-1H-indazol-6-yl)amino)-5-fluoronicotinamide], the IC50 in assay [1] (setting [3]) was 0.13 to 0.2 µM; in assay [2] (setting [4]) it was less than 0.01 µM.
As to `C[C@H](N)[C@@H](CC1CC1)Nc1nc(Nc2ccc3ncccc3c2)c(C(N)=O)cc1F` [Example 006-217, 6-(((2R,3S)-3-amino-1-cyclopropylbutan-2-yl)amino)-5-fluoro-2-((quinolin-6-yl)amino)nicotinamide], the results for the IC50 in assay [1] (setting [3]) and in assay [2] (setting [4]) were less than 0.065 µM and less than 0.01 µM, respectively.
For `CC(C)C[C@H](CN)Nc1nc(Nc2ccc3cnn(C)c3c2)c(C(N)=O)cc1F` [Example 006-226, (R)-6-((1-amino-4-methylpentan-2-yl)amino)-5-fluoro-2-((1-methyl-1H-indazol-6-yl)amino)nicotinamide] the same measures were 0.065 to 0.13 µM and less than 0.01 µM.
For `CCn1nc(F)c2cc(Nc3nc(N[C@H](CC(C)C)[C@H](C)N)c(F)cc3C(N)=O)ccc21` [Example 006-512, 6-(((2S,3R)-2-amino-5-methylhexan-3-yl)amino)-2-((1-ethyl-3-fluoro-1H-indazol-5-yl)amino)-5-fluoronicotinamide], the IC50 in assay [1] (setting [3]) was 0.065 to 0.13 µM; in assay [2] (setting [4]), less than 0.01 µM.
`COCCn1ncc2cc(Nc3nc(N[C@@H]4CCCC[C@@H]4N)c(F)cc3C(N)=O)ccc21` [Example 004-172, 6-((1R,2S)-2-aminocyclohexylamino)-5-fluoro-2-((1-(2-methoxyethyl)-1H-indazol-5-yl)-amino)nicotinamide]: the IC50 in assay [1] (THP-1 cells, Table 22, read-out: IC50 in TNFα generation assay) is 0.065 to 0.13 µM; in assay [2] (setting [4]), less than 0.01 µM.
As for `CCc1nn(CCF)c2ccc(Nc3nc(N[C@@H]4CCCC[C@@H]4N)c(F)cc3C(N)=O)cc12` [Example 006-454, 6-(((1R,2S)-2-aminocyclohexyl)amino)-2-((3-ethyl-1-(2-fluoroethyl)-1H-indazol-5-yl)amino)-5-fluoronicotinamide], the IC50 was 0.065 to 0.13 µM in assay [1] (setting [3]) and less than 0.01 µM in assay [2] (setting [4]).
On to `NC[C@@H](CC1CC1)Nc1nc(Nc2ccc3ncccc3c2)c(C(N)=O)cc1F` [Example 006-214, (R)-6-((1-amino-3-cyclopropylpropan-2-yl)amino)-5-fluoro-2-((quinolin-6-yl)amino)nicotinamide], for which the IC50 was 0.065 to 0.13 µM in assay [1] (setting [3]) and less than 0.01 µM in assay [2] (setting [4]).
As to `NC[C@H](Nc1nc(Nc2ccc3ncccc3c2)c(C(N)=O)cc1F)C1CC1` [Example 006-186, (R)-6-((2-amino-1-cyclopropylethyl)amino)-5-fluoro-2-((quinolin-6-yl)amino)nicotinamide], the values for the IC50 in assay [1] (setting [3]) and in assay [2] (setting [4]) were less than 0.065 µM and less than 0.01 µM, respectively.
In the case of `NC(=O)c1cc(F)c(N[C@@H]2CCCC[C@@H]2N)nc1Nc1cc([N+](=O)[O-])c2[nH]ccc2c1` (relative stereo) [Example 004-089, 6-(cis-2-aminocyclohexylamino)-5-fluoro-2-((7-nitro-1H-indol-5-yl)amino)nicotinamide], the IC50 is 0.065 to 0.13 µM in assay [1] (setting [3]) and less than 0.01 µM in assay [2] (setting [4]).
For `COc1cc(Nc2nc(N[C@@H](CN)c3ccccc3)c(F)cc2C(N)=O)ccn1` [Example 006-133, (R)-6-((2-amino-1-phenylethyl)amino)-5-fluoro-2-((2-methoxypyridin-4-yl)amino)nicotinamide] the same measures were 0.13 to 0.2 µM and 0.01 to 0.05 µM.
Consider `NC(=O)c1cc(F)c(N[C@@H]2CCCC[C@@H]2N)nc1Nc1cnc2cc(N)ccc2c1` (relative stereo) [Example 004-125, 6-(cis-2-aminocyclohexylamino)-2-((7-aminoquinolin-3-yl)amino)-5-fluoronicotinamide], for which the figures for the IC50 in assay [1] (setting [3]) and in assay [2] (setting [4]) were 0.065 to 0.13 µM and less than 0.01 µM, respectively.
On the same counts, the results for `Cc1ncc(Nc2nc(N[C@H](C3CCC3)[C@H](C)N)c(F)cc2C(N)=O)cc1-n1nccn1` [Example 006-598, 6-(((1R,2S)-2-amino-1-cyclobutylpropyl)amino)-5-fluoro-2-((6-methyl-5-(2H-1,2,3-triazol-2-yl)pyridin-3-yl)amino)nicotinamide] are 0.13 to 0.2 µM and less than 0.01 µM.
With `Cc1cc(Nc2nc(N[C@H](C3CC3)[C@H](C)N)c(F)cc2C(N)=O)cnc1C` [Example 006-434, 6-(((1R,2S)-2-amino-1-cyclopropylpropyl)amino)-2-((5,6-dimethylpyridin-3-yl)amino)-5-fluoronicotinamide], the values for the IC50 in assay [1] (setting [3]) and in assay [2] (setting [4]) were less than 0.065 µM and 0.05 to 0.1 µM, respectively.
For `NC(=O)c1cc(F)c(N[C@@H]2CCCC[C@@H]2N)nc1Nc1cnc2ccccc2c1` (relative stereo) [Example 7, 6-(cis-2-aminocyclohexylamino)-5-fluoro-2-(quinolin-3-ylamino)nicotinamide], the IC50 in assay [1] (setting [5]) is no more than 0.2 µM; in assay [2] (setting [6]), no more than 1 µM.
`NC(=O)c1cc(F)c(N[C@@H]2CCCC[C@@H]2N)nc1Nc1cnc2c(N)cccc2c1` (relative stereo) [Example 004-059]: the IC50 in assay [1] (setting [3]) was less than 0.065 µM; in assay [2] (setting [4]), less than 0.01 µM.
Consider `CC[C@@H](Nc1nc(Nc2ccc3nccnc3c2)c(C(N)=O)cc1F)[C@H](C)N` [Example 006-260, 6-(((2S,3R)-2-aminopentan-3-yl)amino)-5-fluoro-2-((quinoxalin-6-yl)amino)nicotinamide], for which the figures for the IC50 in assay [1] (setting [3]) and in assay [2] (setting [4]) were less than 0.065 µM and less than 0.01 µM, respectively.
With `COc1cc(Nc2nc(N[C@@H](CN)CC(C)C)c(F)cc2C(N)=O)ccn1` [Example 006-234, (R)-6-((1-amino-4-methylpentan-2-yl)amino)-5-fluoro-2-((2-methoxypyridin-4-yl)amino)nicotinamide], the values for the IC50 in assay [1] (setting [3]) and in assay [2] (setting [4]) were 0.065 to 0.13 µM and less than 0.01 µM, respectively.
As to `CCCC[C@@H](Nc1nc(Nc2cnc(C)c(-n3nccn3)c2)c(C(N)=O)cc1F)[C@H](C)N` [Example 006-390, 6-(((2S,3R)-2-aminoheptan-3-yl)amino)-5-fluoro-2-((6-methyl-5-(2H-1,2,3-triazol-2-yl)pyridin-3-yl)amino)nicotinamide], the IC50 in assay [1] (setting [3]) was 0.065 to 0.13 µM; in assay [2] (setting [4]), less than 0.01 µM.
Turning to `NCCNc1nc(Nc2ccc3ncccc3c2)c(C(N)=O)cc1F` [Example 6-26, 6-((2-aminoethyl)amino)-5-fluoro-2-(quinolin-6-ylamino)nicotinamide], the figures for the IC50 in assay [1] (setting [5]) and in assay [2] (setting [6]) were no more than 0.2 µM and no more than 1 µM, respectively.
Regarding `Cn1ncc2cc(Nc3nc(N[C@@H](CN)CC4CC4)c(F)cc3C(N)=O)ccc21` [Example 006-282, (R)-6-((1-amino-3-cyclopropylpropan-2-yl)amino)-5-fluoro-2-((1-methyl-1H-indazol-5-yl)amino)nicotinamide], the IC50 was less than 0.065 µM in assay [1] (setting [3]) and less than 0.01 µM in assay [2] (setting [4]).

Values taken from patent US8895585B2, “Nicotinamide derivative or salt thereof” (FUJIFILM Corporation, priority 2010, dated 2014).
